How the values were obtained:
Assay in all cases: AUC of viability dose-response curve (% viability x log10 dose units); higher = less sensitive
Settings in all cases: 48 h
NOMO1 = system: NOMO1
How it was run: (§1)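 Leukemia cells adapted to each medium (500 or 1000 cells/well, 1536-well plates) were exposed to library compounds in DMSO for 48 h at 37°C at 11 threefold doses, 47 μM to 0.79 nM. Luminescence by CellTiter-Glo One was normalised per plate to DMSO and cell-free wells, then fitted with a four-parameter log-logistic curve on log10 dose. Curves above full viability were scaled and quality-control failures removed before area under the curve was integrated by trapezoidal rule.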

P12-Ichikawa = system: P12-Ichikawa
How it was run: as §1

SEM cells = system: SEM cells
How it was run: as §1

[1] = RPMI 5 mM glucose + 10% dialyzed FBS

Row | Compound | AUC of viability dose-response curve (NOMO1; HPLM + 10% dialyzed FBS) | AUC of viability dose-response curve (NOMO1; RPMI 5 mM glucose + 10% FBS) | AUC of viability dose-response curve (NOMO1; [1]) | AUC of viability dose-response curve (P12-Ichikawa; HPLM + 10% dialyzed FBS) | AUC of viability dose-response curve (P12-Ichikawa; RPMI 5 mM glucose + 10% FBS) | AUC of viability dose-response curve (P12-Ichikawa; [1]) | AUC of viability dose-response curve (SEM cells; HPLM + 10% dialyzed FBS) | AUC of viability dose-response curve (SEM cells; RPMI 5 mM glucose + 10% FBS) | AUC of viability dose-response curve (SEM cells; [1])
1 | CNCc1ccc(-c2[nH]c3cc(F)cc4c3c2CCNC4=O)cc1 | 474 | 466 | 461 | 470 | 474 | 467 | 439 | 434 | 460
2 | ClC1=CC\2=C(NC(=O)\C(=C2N[C@@H]3CN4CCC3CC4)C5=NC6=C([NH]5)C=CC=C6)C=C1 | 286 | 257 | 276 | 302 | 263 | 291 | 211 | 200 | 218
3 | COC1=CC=C(C=C1O)C/2=C/C(=O)C3=C(O2)C=C(O)C=C3O | 466 | 428 | 437 | 440 | 446 | 381 | 419 | 456 | 456
4 | COc1cc2nc(-c3cc(F)ccc3O)nc(N[C@@H]3CNC[C@H]3C(C)(C)O)c2cc1OC | 449 | 463 | 455 | 436 | 429 | 410 | 274 | 283 | 227
5 | C[C@H]1[C@@H](C(=O)C[C@H]2O[C@@H]3O[C@]4(C)CC[C@H]5[C@H](C)CC[C@@H]([C@H]2C)[C@@]35OO4)O[C@@H]2O[C@]3(C)CC[C@H]4[C@H](C)CC[C@@H]1[C@@]24OO3 | 435 | 436 | 418 | 433 | 435 | 421 | 411 | 407 | 432
6 | O=C(Nc1ncc(SCCN2CCCC2)s1)[C@]1(c2ccc([S+](=O)([O-])C3CC3)cc2)C[C@H]1C1CCCCC1 | 428 | 451 | 446 | 455 | 459 | 445 | 390 | 461 | 420
7 | COCCOc1nc(-c2ccc(Cl)c(Cl)c2)n(-c2ccc(NC(=O)CCl)cc2)n1 | 460 | 408 | 433 | 469 | 450 | 421 | 444 | 430 | 430
8 | CC[C@H](C)C(=O)O[C@H]1C[C@H](O)\C=C2\C=C/[C@H](C)[C@H](CC[C@@H](O)C[C@@H](O)CC(O)=O)[C@@H]12 | 441 | 457 | 462 | 447 | 460 | 464 | 458 | 464 | 470
9 | O=C(O)CCn1c2c(c3ccccc31)C[C@H](N[S+](=O)([O-])c1ccc(F)cc1)CC2 | 458 | 457 | 448 | 465 | 468 | 453 | 471 | 449 | 472
10 | COc1cccc([C@@H](C)NCCCc2ccccc2Cl)c1 | 461 | 437 | 429 | 440 | 435 | 432 | 463 | 436 | 472
11 | NC(=O)C1CCCc2c1[nH]c1ccc(Cl)cc21 (stereo unspecified) | 370 | 401 | 404 | 417 | 436 | 421 | 343 | 381 | 365
12 | c1ccc(CNc2nc(N3CCOc4ccccc43)nc3c2CCCC3)cc1 | 468 | 473 | 470 | 461 | 476 | 472 | 455 | 428 | 451
13 | Nc1nc(N)c2nc(-c3cccc(O)c3)c(-c3cccc(O)c3)nc2n1 | 402 | 443 | 440 | 409 | 445 | 454 | 409 | 430 | 420
14 | Cc1cnc(C(=O)O)c[n+]1[O-] | 400 | 454 | 447 | 460 | 468 | 441 | 450 | 416 | 475
